According to US11697648B2, “Fused pyrimidine pyridinone compounds as JAK inhibitors” (THERAVANCE BIOPHARMA R&D IP, LLC, priority 2019, dated 2023):

Biological target: JAK1 (Homo sapiens (Human), UniProt P23458)
Experiment: Biochemical JAK1 kinase assay (LanthaScreen)
Conditions: not given
Outline: (§1)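 GST-JAK + GFP-STAT1 peptide, HEPES pH 7.5/MgCl2/EGTA/Brij-35 buffer; cpd preincubation 1 h RT; ATP start, 1 h RT; stop with 10 mM EDTA + 2 nM Tb-anti-pSTAT1; TR-FRET 520/495. 4-parameter IC50 → pKi (Cheng-Prusoff).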

Sequence of JAK1 (P23458 whole entry): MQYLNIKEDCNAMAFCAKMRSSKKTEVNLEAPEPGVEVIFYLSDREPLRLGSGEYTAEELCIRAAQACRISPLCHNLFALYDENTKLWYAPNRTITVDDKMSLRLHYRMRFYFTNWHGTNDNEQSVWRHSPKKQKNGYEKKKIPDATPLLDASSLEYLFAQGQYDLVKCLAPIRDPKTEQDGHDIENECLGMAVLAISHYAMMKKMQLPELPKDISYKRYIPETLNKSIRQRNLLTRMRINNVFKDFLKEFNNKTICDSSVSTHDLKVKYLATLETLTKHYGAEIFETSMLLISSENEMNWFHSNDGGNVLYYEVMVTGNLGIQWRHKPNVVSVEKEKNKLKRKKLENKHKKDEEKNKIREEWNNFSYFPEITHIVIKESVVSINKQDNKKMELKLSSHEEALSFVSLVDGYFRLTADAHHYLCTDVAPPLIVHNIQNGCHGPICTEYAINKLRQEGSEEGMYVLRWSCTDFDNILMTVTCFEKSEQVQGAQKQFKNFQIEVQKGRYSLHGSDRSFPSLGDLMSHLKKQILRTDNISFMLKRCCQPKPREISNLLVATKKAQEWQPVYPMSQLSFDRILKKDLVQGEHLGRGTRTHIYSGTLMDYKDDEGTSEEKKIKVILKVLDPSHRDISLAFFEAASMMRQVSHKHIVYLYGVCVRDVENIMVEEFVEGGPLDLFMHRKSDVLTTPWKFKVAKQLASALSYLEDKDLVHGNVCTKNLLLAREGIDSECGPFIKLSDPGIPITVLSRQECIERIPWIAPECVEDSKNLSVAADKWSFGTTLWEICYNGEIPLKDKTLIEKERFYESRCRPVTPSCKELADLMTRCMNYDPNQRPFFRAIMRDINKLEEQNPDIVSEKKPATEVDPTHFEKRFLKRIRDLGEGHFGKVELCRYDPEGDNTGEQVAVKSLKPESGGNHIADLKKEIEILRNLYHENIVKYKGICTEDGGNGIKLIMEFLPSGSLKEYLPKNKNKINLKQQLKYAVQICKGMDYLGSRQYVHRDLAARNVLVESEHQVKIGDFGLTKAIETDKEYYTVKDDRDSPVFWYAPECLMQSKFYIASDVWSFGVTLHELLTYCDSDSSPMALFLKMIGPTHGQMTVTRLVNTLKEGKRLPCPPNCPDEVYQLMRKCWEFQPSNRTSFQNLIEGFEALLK

Row | Structure (SMILES) | JAK 1 (pKi)
1 | C=CC(=O)N1CC(CCn2c(=O)ccc3cnc(Nc4ccc(N5CCN(C(C)=O)[C@H](C)C5)cc4)nc32)C1 [Example 169] | E (E represents a pKi value of 7 or below (Ki of 100 nM or above))
2 | C=CC(=O)N1CCN(CCn2c(=O)ccc3cnc(Nc4ccc(N5CCN(S(C)(=O)=O)CC5)cc4)nc32)[C@@H](C)C1 [Example 176] | E (E represents a pKi value of 7 or below (Ki of 100 nM or above))
3 | C=CC(=O)N1CC(CCn2c(=O)ccc3cnc(Nc4ccc(N5CCN(C(F)(F)F)CC5)cc4)nc32)C1 [Example 177] | E (E represents a pKi value of 7 or below (Ki of 100 nM or above))
4 | C=CC(=O)N1CC(CCn2c(=O)ccc3cnc(Nc4ccc(N5CCN(C(C)=O)CC5)c(F)c4)nc32)C1 [Example 181] | E (E represents a pKi value of 7 or below (Ki of 100 nM or above))
5 | C=CC(=O)N1CC(CCn2c(=O)ccc3cnc(Nc4ccc(N5CCN(C(C)=O)CC5)c(Cl)c4)nc32)C1 [Example 182] | E (E represents a pKi value of 7 or below (Ki of 100 nM or above))
6 | C=CC(=O)N1CC(CCn2c(=O)ccc3cnc(Nc4ccc(N5CCN(C(C)=O)CC5)nc4)nc32)C1 [Example 183] | E (E represents a pKi value of 7 or below (Ki of 100 nM or above))
7 | C=CC(=O)N1CC(C(C)(C)Cn2c(=O)ccc3cnc(Nc4ccc(N5CCN(C(C)=O)CC5)cc4)nc32)C1 [Example 184] | E (E represents a pKi value of 7 or below (Ki of 100 nM or above))

Biological target: JAK2 (Homo sapiens (Human), UniProt O60674)
Sequence (O60674 whole entry): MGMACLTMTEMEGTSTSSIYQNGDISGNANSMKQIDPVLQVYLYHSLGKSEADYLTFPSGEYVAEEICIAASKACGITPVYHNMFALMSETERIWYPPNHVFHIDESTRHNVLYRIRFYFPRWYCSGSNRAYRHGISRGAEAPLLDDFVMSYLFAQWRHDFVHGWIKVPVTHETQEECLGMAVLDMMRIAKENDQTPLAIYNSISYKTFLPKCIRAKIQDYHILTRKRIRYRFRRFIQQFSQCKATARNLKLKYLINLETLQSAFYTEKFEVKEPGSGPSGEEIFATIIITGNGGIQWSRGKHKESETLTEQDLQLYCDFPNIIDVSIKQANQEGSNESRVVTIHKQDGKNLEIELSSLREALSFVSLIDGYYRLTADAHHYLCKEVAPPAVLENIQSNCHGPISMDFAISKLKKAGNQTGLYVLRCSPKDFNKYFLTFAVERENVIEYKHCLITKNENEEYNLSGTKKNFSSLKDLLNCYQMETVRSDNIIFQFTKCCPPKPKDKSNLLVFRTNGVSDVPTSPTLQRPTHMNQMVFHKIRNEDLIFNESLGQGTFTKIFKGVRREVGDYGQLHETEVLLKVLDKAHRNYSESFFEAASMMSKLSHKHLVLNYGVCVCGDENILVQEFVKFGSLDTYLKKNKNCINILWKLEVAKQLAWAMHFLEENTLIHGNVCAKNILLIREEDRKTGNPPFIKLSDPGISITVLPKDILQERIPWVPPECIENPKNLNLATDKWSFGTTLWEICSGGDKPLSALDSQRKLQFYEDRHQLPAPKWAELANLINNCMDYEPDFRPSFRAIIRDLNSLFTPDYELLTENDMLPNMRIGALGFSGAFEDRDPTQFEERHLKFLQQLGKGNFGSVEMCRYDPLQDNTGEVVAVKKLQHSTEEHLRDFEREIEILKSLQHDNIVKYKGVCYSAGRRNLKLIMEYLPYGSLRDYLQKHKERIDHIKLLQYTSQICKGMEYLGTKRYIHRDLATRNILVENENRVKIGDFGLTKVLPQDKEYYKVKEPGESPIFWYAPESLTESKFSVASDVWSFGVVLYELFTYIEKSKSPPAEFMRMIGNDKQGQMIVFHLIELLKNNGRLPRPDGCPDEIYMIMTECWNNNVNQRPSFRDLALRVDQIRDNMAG
Experiment: Biochemical JAK2 kinase assay (LanthaScreen)
Conditions: not given
Outline: as §1

Row | Structure (SMILES) | JAK 2 (pKi)
8 | C=CC(=O)N1CC(CCn2c(=O)ccc3cnc(Nc4ccc(N5CCN(C(C)=O)[C@H](C)C5)cc4)nc32)C1 [Example 169] | E (E represents a pKi value of 7 or below (Ki of 100 nM or above))
9 | C=CC(=O)N1CCN(CCn2c(=O)ccc3cnc(Nc4ccc(N5CCN(S(C)(=O)=O)CC5)cc4)nc32)[C@@H](C)C1 [Example 176] | E (E represents a pKi value of 7 or below (Ki of 100 nM or above))
10 | C=CC(=O)N1CC(CCn2c(=O)ccc3cnc(Nc4ccc(N5CCN(C(F)(F)F)CC5)cc4)nc32)C1 [Example 177] | E (E represents a pKi value of 7 or below (Ki of 100 nM or above))
11 | C=CC(=O)N1CC(CCn2c(=O)ccc3cnc(Nc4ccc(N5CCN(C(C)=O)CC5)c(F)c4)nc32)C1 [Example 181] | E (E represents a pKi value of 7 or below (Ki of 100 nM or above))
12 | C=CC(=O)N1CC(CCn2c(=O)ccc3cnc(Nc4ccc(N5CCN(C(C)=O)CC5)c(Cl)c4)nc32)C1 [Example 182] | E (E represents a pKi value of 7 or below (Ki of 100 nM or above))
13 | C=CC(=O)N1CC(CCn2c(=O)ccc3cnc(Nc4ccc(N5CCN(C(C)=O)CC5)nc4)nc32)C1 [Example 183] | E (E represents a pKi value of 7 or below (Ki of 100 nM or above))
14 | C=CC(=O)N1CC(C(C)(C)Cn2c(=O)ccc3cnc(Nc4ccc(N5CCN(C(C)=O)CC5)cc4)nc32)C1 [Example 184] | E (E represents a pKi value of 7 or below (Ki of 100 nM or above))

Biological target: JAK3 (Homo sapiens (Human), UniProt P52333)
Sequence (P52333 whole entry): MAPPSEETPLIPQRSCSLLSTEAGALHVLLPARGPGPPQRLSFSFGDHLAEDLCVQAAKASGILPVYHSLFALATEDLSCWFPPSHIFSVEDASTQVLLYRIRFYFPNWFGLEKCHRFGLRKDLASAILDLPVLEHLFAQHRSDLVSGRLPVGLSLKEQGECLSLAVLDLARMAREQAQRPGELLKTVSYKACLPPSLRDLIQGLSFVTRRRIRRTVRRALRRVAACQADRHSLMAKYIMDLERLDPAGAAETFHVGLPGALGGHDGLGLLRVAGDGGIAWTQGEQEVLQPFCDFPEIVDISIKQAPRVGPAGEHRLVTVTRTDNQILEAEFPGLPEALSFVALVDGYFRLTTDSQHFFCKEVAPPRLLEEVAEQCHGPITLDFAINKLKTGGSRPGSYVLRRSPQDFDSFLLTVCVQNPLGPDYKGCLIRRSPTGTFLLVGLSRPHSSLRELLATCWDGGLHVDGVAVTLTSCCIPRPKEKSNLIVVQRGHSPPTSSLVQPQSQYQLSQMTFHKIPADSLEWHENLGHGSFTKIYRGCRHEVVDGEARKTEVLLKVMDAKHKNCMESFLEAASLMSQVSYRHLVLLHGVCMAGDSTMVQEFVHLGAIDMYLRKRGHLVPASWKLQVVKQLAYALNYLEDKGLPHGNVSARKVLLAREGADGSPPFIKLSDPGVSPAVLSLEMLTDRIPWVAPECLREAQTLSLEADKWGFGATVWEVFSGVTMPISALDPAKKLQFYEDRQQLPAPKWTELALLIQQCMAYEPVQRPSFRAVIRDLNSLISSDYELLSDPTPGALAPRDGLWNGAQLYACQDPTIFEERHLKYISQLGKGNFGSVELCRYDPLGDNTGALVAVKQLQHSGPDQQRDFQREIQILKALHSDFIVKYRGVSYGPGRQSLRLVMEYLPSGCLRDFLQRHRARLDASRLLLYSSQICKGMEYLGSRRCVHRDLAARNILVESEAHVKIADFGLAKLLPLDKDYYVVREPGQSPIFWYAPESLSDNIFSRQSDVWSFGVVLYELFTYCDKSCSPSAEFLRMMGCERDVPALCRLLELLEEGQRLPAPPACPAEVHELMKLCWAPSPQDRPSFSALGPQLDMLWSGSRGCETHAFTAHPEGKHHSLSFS
Experiment: Biochemical JAK3 kinase assay (LanthaScreen)
Conditions: not given
Outline: as §1

Row | Structure (SMILES) | JAK 3 (pKi)
15 | C=CC(=O)N1CC(CCn2c(=O)ccc3cnc(Nc4ccc(N5CCN(C(C)=O)[C@H](C)C5)cc4)nc32)C1 [Example 169] | A (A represents a pKi value≥10 (Ki≤0.1 nM))
16 | C=CC(=O)N1CCN(CCn2c(=O)ccc3cnc(Nc4ccc(N5CCN(S(C)(=O)=O)CC5)cc4)nc32)[C@@H](C)C1 [Example 176] | A (A represents a pKi value≥10 (Ki≤0.1 nM))
17 | C=CC(=O)N1CC(CCn2c(=O)ccc3cnc(Nc4ccc(N5CCN(C(F)(F)F)CC5)cc4)nc32)C1 [Example 177] | B (B represents pKi value between 9 and 10 (Ki between 1 nM and 0.1 nM))
18 | C=CC(=O)N1CC(CCn2c(=O)ccc3cnc(Nc4ccc(N5CCN(C(C)=O)CC5)c(F)c4)nc32)C1 [Example 181] | B (B represents pKi value between 9 and 10 (Ki between 1 nM and 0.1 nM))
19 | C=CC(=O)N1CC(CCn2c(=O)ccc3cnc(Nc4ccc(N5CCN(C(C)=O)CC5)c(Cl)c4)nc32)C1 [Example 182] | A (A represents a pKi value≥10 (Ki≤0.1 nM))
20 | C=CC(=O)N1CC(CCn2c(=O)ccc3cnc(Nc4ccc(N5CCN(C(C)=O)CC5)nc4)nc32)C1 [Example 183] | A (A represents a pKi value≥10 (Ki≤0.1 nM))
21 | C=CC(=O)N1CC(C(C)(C)Cn2c(=O)ccc3cnc(Nc4ccc(N5CCN(C(C)=O)CC5)cc4)nc32)C1 [Example 184] | A (A represents a pKi value≥10 (Ki≤0.1 nM))

Same assay, conditions: selectivity JAK3 over JAK1, difference of pKi

Row | Structure (SMILES) | JAK3 (pKi)-JAK1 (pKi)
22 | C=CC(=O)N1CC(CCn2c(=O)ccc3cnc(Nc4ccc(N5CCN(C(C)=O)[C@H](C)C5)cc4)nc32)C1 [Example 169] | A (A represents a value of 3 or above)
23 | C=CC(=O)N1CCN(CCn2c(=O)ccc3cnc(Nc4ccc(N5CCN(S(C)(=O)=O)CC5)cc4)nc32)[C@@H](C)C1 [Example 176] | A (A represents a value of 3 or above)
24 | C=CC(=O)N1CC(CCn2c(=O)ccc3cnc(Nc4ccc(N5CCN(C(F)(F)F)CC5)cc4)nc32)C1 [Example 177] | A (A represents a value of 3 or above)
25 | C=CC(=O)N1CC(CCn2c(=O)ccc3cnc(Nc4ccc(N5CCN(C(C)=O)CC5)c(F)c4)nc32)C1 [Example 181] | A (A represents a value of 3 or above)
26 | C=CC(=O)N1CC(CCn2c(=O)ccc3cnc(Nc4ccc(N5CCN(C(C)=O)CC5)c(Cl)c4)nc32)C1 [Example 182] | A (A represents a value of 3 or above)
27 | C=CC(=O)N1CC(CCn2c(=O)ccc3cnc(Nc4ccc(N5CCN(C(C)=O)CC5)nc4)nc32)C1 [Example 183] | A (A represents a value of 3 or above)
28 | C=CC(=O)N1CC(C(C)(C)Cn2c(=O)ccc3cnc(Nc4ccc(N5CCN(C(C)=O)CC5)cc4)nc32)C1 [Example 184] | A (A represents a value of 3 or above)

Biological target: Tyk2 (Homo sapiens (Human), UniProt P29597)
Sequence (P29597 whole entry): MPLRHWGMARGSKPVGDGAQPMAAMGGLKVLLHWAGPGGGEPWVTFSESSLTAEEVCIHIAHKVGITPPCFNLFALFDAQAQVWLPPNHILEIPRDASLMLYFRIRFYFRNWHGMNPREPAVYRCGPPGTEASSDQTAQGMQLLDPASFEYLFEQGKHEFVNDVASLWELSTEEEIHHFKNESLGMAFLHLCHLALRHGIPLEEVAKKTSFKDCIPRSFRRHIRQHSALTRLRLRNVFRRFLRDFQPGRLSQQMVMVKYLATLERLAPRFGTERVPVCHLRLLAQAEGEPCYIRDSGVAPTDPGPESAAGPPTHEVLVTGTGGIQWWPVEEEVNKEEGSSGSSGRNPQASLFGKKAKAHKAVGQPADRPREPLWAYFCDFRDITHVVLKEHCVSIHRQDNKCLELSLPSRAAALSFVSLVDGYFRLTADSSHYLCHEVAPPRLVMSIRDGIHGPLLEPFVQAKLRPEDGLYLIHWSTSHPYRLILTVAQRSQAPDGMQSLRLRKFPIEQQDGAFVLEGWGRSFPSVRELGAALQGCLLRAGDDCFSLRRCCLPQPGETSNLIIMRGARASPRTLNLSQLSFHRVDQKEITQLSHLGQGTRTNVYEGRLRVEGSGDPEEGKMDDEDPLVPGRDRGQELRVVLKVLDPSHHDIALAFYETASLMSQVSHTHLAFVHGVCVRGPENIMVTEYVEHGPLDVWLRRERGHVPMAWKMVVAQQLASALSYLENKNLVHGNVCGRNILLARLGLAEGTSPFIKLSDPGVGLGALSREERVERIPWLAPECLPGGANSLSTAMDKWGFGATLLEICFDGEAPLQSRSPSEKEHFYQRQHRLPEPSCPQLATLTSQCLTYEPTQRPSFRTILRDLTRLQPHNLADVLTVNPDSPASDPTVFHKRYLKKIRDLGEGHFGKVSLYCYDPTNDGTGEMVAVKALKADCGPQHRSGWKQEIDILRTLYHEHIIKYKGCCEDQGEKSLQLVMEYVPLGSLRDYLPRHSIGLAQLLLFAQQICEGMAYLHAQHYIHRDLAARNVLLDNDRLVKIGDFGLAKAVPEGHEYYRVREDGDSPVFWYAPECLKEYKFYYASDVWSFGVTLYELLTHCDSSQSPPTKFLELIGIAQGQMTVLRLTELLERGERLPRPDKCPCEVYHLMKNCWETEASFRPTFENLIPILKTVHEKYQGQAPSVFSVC
Experiment: Biochemical Tyk2 kinase assay (LanthaScreen)
Conditions: not given
Outline: as §1

Row | Structure (SMILES) | Tyk 2 (pKi)
29 | C=CC(=O)N1CC(CCn2c(=O)ccc3cnc(Nc4ccc(N5CCN(C(C)=O)[C@H](C)C5)cc4)nc32)C1 [Example 169] | E (E represents a pKi value of 7 or below (Ki of 100 nM or above))
30 | C=CC(=O)N1CCN(CCn2c(=O)ccc3cnc(Nc4ccc(N5CCN(S(C)(=O)=O)CC5)cc4)nc32)[C@@H](C)C1 [Example 176] | E (E represents a pKi value of 7 or below (Ki of 100 nM or above))
31 | C=CC(=O)N1CC(CCn2c(=O)ccc3cnc(Nc4ccc(N5CCN(C(F)(F)F)CC5)cc4)nc32)C1 [Example 177] | E (E represents a pKi value of 7 or below (Ki of 100 nM or above))
32 | C=CC(=O)N1CC(CCn2c(=O)ccc3cnc(Nc4ccc(N5CCN(C(C)=O)CC5)c(F)c4)nc32)C1 [Example 181] | E (E represents a pKi value of 7 or below (Ki of 100 nM or above))
33 | C=CC(=O)N1CC(CCn2c(=O)ccc3cnc(Nc4ccc(N5CCN(C(C)=O)CC5)c(Cl)c4)nc32)C1 [Example 182] | E (E represents a pKi value of 7 or below (Ki of 100 nM or above))
34 | C=CC(=O)N1CC(CCn2c(=O)ccc3cnc(Nc4ccc(N5CCN(C(C)=O)CC5)nc4)nc32)C1 [Example 183] | E (E represents a pKi value of 7 or below (Ki of 100 nM or above))
35 | C=CC(=O)N1CC(C(C)(C)Cn2c(=O)ccc3cnc(Nc4ccc(N5CCN(C(C)=O)CC5)cc4)nc32)C1 [Example 184] | E (E represents a pKi value of 7 or below (Ki of 100 nM or above))

Tested on: IL-2 stimulated STAT5 phosphorylation in Tall-1 human T cell line (JAK3)
Experiment: Cellular JAK3 potency assay: inhibition of IL-2 stimulated pSTAT5 in Tall-1 T cells
Type: cell-based
Conditions: IL-2 stimulated pSTAT5, Tall-1 T cells
Outline: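 Tall-1 cells, 45,000 per well, preincubated 1 hour with compound at 37 °C, then stimulated 30 minutes with IL-2 at 300 ng/ml final. pSTAT5 (Tyr694/699) in lysates quantified by AlphaLISA SureFire Ultra. pIC50 derived from inhibition curves, given as mean with SD.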

Row | Structure (SMILES) | Tall-1 (pIC50)
36 | C=CC(=O)N1CC(CCn2c(=O)ccc3cnc(Nc4ccc(N5CCN(C(C)=O)[C@H](C)C5)cc4)nc32)C1 [Example 169] | A (A represents a pIC50 value≥7.5 (IC50≤32 nM))
37 | C=CC(=O)N1CCN(CCn2c(=O)ccc3cnc(Nc4ccc(N5CCN(S(C)(=O)=O)CC5)cc4)nc32)[C@@H](C)C1 [Example 176] | B (B represents a pC50 value between 6.7 (included) and 7.5 (IC50 between 200 nM and 32 nM))
38 | C=CC(=O)N1CC(CCn2c(=O)ccc3cnc(Nc4ccc(N5CCN(C(F)(F)F)CC5)cc4)nc32)C1 [Example 177] | B (B represents a pC50 value between 6.7 (included) and 7.5 (IC50 between 200 nM and 32 nM))
39 | C=CC(=O)N1CC(CCn2c(=O)ccc3cnc(Nc4ccc(N5CCN(C(C)=O)CC5)c(F)c4)nc32)C1 [Example 181] | B (B represents a pC50 value between 6.7 (included) and 7.5 (IC50 between 200 nM and 32 nM))
40 | C=CC(=O)N1CC(CCn2c(=O)ccc3cnc(Nc4ccc(N5CCN(C(C)=O)CC5)c(Cl)c4)nc32)C1 [Example 182] | B (B represents a pC50 value between 6.7 (included) and 7.5 (IC50 between 200 nM and 32 nM))
41 | C=CC(=O)N1CC(CCn2c(=O)ccc3cnc(Nc4ccc(N5CCN(C(C)=O)CC5)nc4)nc32)C1 [Example 183] | C (C represents a pIC50 value between 6 and 6.7 (IC50 between 1 μM and 200 nM))
42 | C=CC(=O)N1CC(C(C)(C)Cn2c(=O)ccc3cnc(Nc4ccc(N5CCN(C(C)=O)CC5)cc4)nc32)C1 [Example 184] | B (B represents a pC50 value between 6.7 (included) and 7.5 (IC50 between 200 nM and 32 nM))
